Measurements taken from PubChem BioAssay (NCI).
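Exposure lasted 48 hours, with cells grown in 96-well plates and compounds tested at five concentrations. GI50 marks 50% less growth. TGI is the concentration that stops growth completely.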

Assays:
Test in all cases: NCI tumour cell line growth inhibition, 48 h
OVCAR-3 ovarian = system: OVCAR-3 ovarian
EKVX NSCLC = system: EKVX NSCLC
PC-3 prostate = system: PC-3 prostate
HOP-62 NSCLC = system: HOP-62 NSCLC
HCT-116 colon = system: HCT-116 colon
NCI/ADR-RES ovarian = system: NCI/ADR-RES ovarian
MCF7 breast = system: MCF7 breast
SW-620 colon = system: SW-620 colon
RPMI-8226 leukemia = system: RPMI-8226 leukemia
KM12 colon = system: KM12 colon

SMILES: O=C1c2ccccc2-c2c1c1ccccc1c(=O)n2CCNCCNCCNCCn1c2c(c3ccccc3c1=O)C(=O)c1ccccc1-2
- GI50 (OVCAR-3 ovarian): 1160 nM
- TGI (OVCAR-3 ovarian): 4910 nM
- GI50 (EKVX NSCLC): 1280 nM
- TGI (EKVX NSCLC): 2810 nM
- GI50 (PC-3 prostate): 373 nM
- TGI (PC-3 prostate): 1330 nM
- GI50 (HOP-62 NSCLC): 48.3 nM
- TGI (HOP-62 NSCLC): 2450 nM
- GI50 (HCT-116 colon): 111 nM
- TGI (HCT-116 colon): > 100000 nM
- GI50 (NCI/ADR-RES ovarian): 3900 nM
- TGI (NCI/ADR-RES ovarian): > 54900 nM
- GI50 (MCF7 breast): 32.9 nM
- TGI (MCF7 breast): 298 nM
- GI50 (SW-620 colon): 194 nM
- TGI (SW-620 colon): > 100000 nM
- GI50 (RPMI-8226 leukemia): 49.9 nM
- GI50 (KM12 colon): 669 nM
- TGI (KM12 colon): 3220 nM
